Data reported in publication PMC3813006 (Bioorganic & medicinal chemistry, 2009).
Values belong to the molecule of their own block, whether it stands above or below them.

How the values were obtained:
[1] = system: Trypanosoma brucei rhodesiense STIB900; test: In vitro antitrypanosomal assay, T. b. r. STIB900; assay type: cell-based; conditions: RHODESIENSE|STIB900, read-out: T. b. r. IC50
[2] = system: Plasmodium falciparum K1; test: microbe, parasite or virus in culture; conditions: K1, read-out: P. f. IC50
[3] = Cytotoxicity in cultured L6 rat myoblast cells; assay type: cell-based; conditions: rat, L6 rat myoblast cells
[4] = system: L6 rat myoblast cells; test: Cytotoxicity in cultured L6 rat myoblast cells; assay type: cell-based; conditions: read-out: Cytotoxicity IC50; cultured L6 rat myoblast cells

IC50 [1]: 0.0065 µM | IC50 [2]: 0.0065 µM
SMILES: N=C(N)c1ccc(-c2ccc(-c3ccc(C(=N)N)cn3)o2)cc1 [3a, azafuramidine]

SMILES: N=C(N)c1ccc(-c2ccc(-c3ccc(C(=N)N)cc3)cc2)cc1 [6a]
IC50 [3]: 22.1 µM

SMILES: N=C(N)c1ccc(-c2ccc(-c3ccc(C(=N)N)cc3)nn2)cc1 [15b]
IC50 [4]: 31.3 µM
